Reference: PMC12654037, “Norditerpene Natural Products from Subterranean Fungi with Anti-Parasitic Activity” (Microorganisms, 2025)
Like-named read-outs stand apart in the source and are kept apart here.

How the values were obtained:
C. parvum = C. parvum growth inhibition assay (Cp-NLuc-infected HCT-8 cells); assay type: cell-based, Cryptosporidium parvum; conditions: for EC50: Cryptosporidium parvum
Procedure: C. parvum growth inhibition assays: The in vitro growth inhibition assay of C. parvum has been previously described. Briefly, clear-bottom, white-sided 96 well plates were seeded with HCT-8 cells. Once the cells reached between 50% and 75% confluency, they were infected with Cp-NLuc oocysts (10,000/well) in complete media containing 0.6% taurocholate. At 24 h post-infection (hpi), the infected cells were treated with compounds at various concentrations. DMSO was used as a vehicle control in parallel. Parasite growth was determined at 72 hpi by measuring relative luminescence units (RLUs) using Promega Nano-Glo substrate (Promega, Madison, WI, USA) and a SpectraMax® L Microplate Reader (Molecular Devices, San Jose, CA, USA). The percent inhibition of parasite growth was calculated as [(RLUDMSO − RLUcompound)/RLUDMSO] × 100.

T. gondii = T. gondii growth inhibition assay (TgRH-Luc:GFP-infected HFF cells); assay type: cell-based; conditions: Toxoplasma gondii, 10 µM to 156 nM, Figure 2E
Procedure: T. gondii growth inhibition assays: The T. gondii inhibition assay was described previously. Briefly, HFF cells were seeded onto white-sided, clear-bottom 96 well plates, grown to confluence, and then 5000 TgRH-Luc:GFP parasites were added to each well. At 24 hpi, compounds or DMSO were added. The growth of the parasites was determined by relative luminescence at 48 hpi using Promega Bright-Glo (Promega, Madison, WI, USA) substrate. Plates were read, and the percent inhibition of parasite growth was calculated as described above. Determination of -static versus -cidal activity was conducted as indicated above, with parasite growth quantified after 48 h of infection. Each sample was run in triplicate, and each experiment was repeated three times.

[1] = test system: G. lamblia WBC6 and CBG99 trophozoites; test: Giardia lamblia trophozoite growth inhibition assay; assay type: cell-based; conditions: 72 h
Procedure: Compound inhibition assay against Giardia lamblia WBC6 and CBG99 trophozoites: Biological replicates of growth inhibition assays were performed using wild-type G. lamblia WBC6 and G. lamblia CBG99 trophozoites at 37 °C under reduced oxygen conditions in a sealed 0.5 mL airtight sterile tube (USA Scientific, Ocala, FL, USA), following the susceptibility assay described below. G. lamblia trophozoites were grown in TYI-S-33 medium supplemented with 10% bovine serum and 0.05 mg/mL bovine bile, as previously described. A 3-fold serial concentration of pure compounds starting at 29 µM was screened against 75,000 cells/mL of parasites in modified TYI-S-33 medium with a final dimethyl sulfoxide (DMSO) concentration of 0.14%. Metronidazole was run in parallel at a final highest concentration of 66.7 µM and 3-fold subsequent serial dilutions. The untreated negative control contained 0.14% of DMSO. Sealable test tubes filled to its maximum volume of 700 µL were used to perform this assay. The test tubes were incubated at 37 °C for 72 h. After incubation, the tubes were chilled on ice, and the reaction was transferred to 96-well plates. In the plate, 50 µL of an ATP binding luminescence marker, CellTiter-Glo (Promega, Madison, WI, USA) or 10 µL of 2.5 mg/mL d-luciferin (GoldBio, St Louis, MO, USA) was added to each well and allowed to develop at room temperature for 10 min [31, 36]. The assay was read and analyzed using an EnVision Plate Reader (Perkin Elmer, Waltham, MA, USA). Response curves and EC50 values (the concentration at which 50% of G. lamblia trophozoite growth was inhibited) were calculated using GraphPad Prism (GraphPad, LaJolla, CA, USA).

HCT-8 cytotoxicity assay = assay type: cell-based; conditions: human; sub-confluent (~40% confluency); read-out: EC50 cytotoxicity against sub-confluent HCT-8 cells
Procedure: (§1) HCT-8 and HFF cytotoxicity assays: Cytotoxicity of the compounds was determined against both confluent (the conditions of the infection assays) and growing HCT-8 and HFF host cells, as previously described. Cells were seeded into white-sided, clear-bottom 96-well plates and grown to either 40% or 100% confluency. Compounds were added to cells at various concentrations up to 100 µM in a final DMSO concentration of 0.5%. DMSO was run in parallel as a vehicle control. After 48 h, the viability of the cells was determined by either quantification of cellular ATP (Cell-Titer Glo cell viability assay; Promega, Madison WI, USA) or by MTT assay. Viability was determined 24 h after compound addition to HFF cells or 48 h after compound addition to HCT-8 cells or HepG2 cells. The percent cell growth was then calculated with the following formula: % Cell Growth = [RLUcompound/RLUDMSO] × 100. Samples were run in triplicate with two to three biological replicates.

HCT-8 cells = test: HCT-8 cytotoxicity assay; assay type: cell-based
Procedure: as §1

HFF cells = test: HFF cytotoxicity assay; assay type: cell-based
Procedure: as §1

HepG2 human hepatocytes = test: HepG2 cytotoxicity assay (MTS); assay type: cell-based; conditions: 48 h, mean +/- SD
Procedure: HepG2 cytotoxicity assay: Mammalian cell cytotoxicity was assessed in HepG2 human hepatocytes using an MTS 3-(4,5-dimethylthiazol-2-yl)-5-(3-carboxymethoxyphenyl)-2-(4-sulfophenyl)-2H-tetrazolium)-based cytotoxicity assay. For cytotoxicity testing, ∼2250 cells were seeded into each well of a 384-well microtiter plate and incubated for 24 h. Serial dilutions of the compounds were added in triplicate starting at 25 μM. Cells were further incubated for an additional 48 h at 37 °C in an atmosphere containing 5% CO2. Zero-growth control wells were incubated with 5% Triton X-100 for 5 min prior to MTS addition. Following the addition of MTS to all wells, the plates were incubated for an additional 4 h under the same environmental conditions before taking absorbance measurements. Absorbance values were recorded at 490 nm using a Synergy Neo2 multimode reader (BioTek), and values were normalized based on Triton X-100-lysed and no treatment controls. Samples were run in triplicate in each assay, and the experiments were repeated three times.

HuF fibroblast cell line = conditions: cited from earlier work
P. falciparum line Dd2 = test: Plasmodium falciparum growth inhibition assay (SYBR Green I), Dd2
Procedure: (§2) Plasmodium falciparum growth inhibition assay: Antiplasmodial EC50 results were determined using a fluorescence-based SYBR Green I assay performed using asynchronous cultures [30, 35]. […] Plates were subsequently frozen at −80 °C to facilitate lysis. […] Relative fluorescence units (RFUs) were normalized based on chloroquine-treated and no treatment controls. Serial dilutions of compounds were prepared in RPMI with final assay conditions of ≤0.2% DMSO. Each assay was conducted in triplicate with three biological replicates.

P. falciparum 3D7 = test: Plasmodium falciparum growth inhibition assay (SYBR Green I), 3D7; conditions: 3D7, 72 h, read-out: EC50 3D7(M)
Procedure: as §2

SMILES: CO[C@H]1OC(=O)C=C2C1=C[C@H]1OC(=O)[C@@]3(C)CCC[C@@]2(C)[C@@H]13 [compound 7, oidiolactone B]
- increase in inhibitory activity against C. parvum versus oidiolactone A (C. parvum; 7,8 double bond vs. 7α,8α-epoxy group): 2 fold
- EC50 (C. parvum; HCT-8, abstract, read-out: EC50 against C. parvum): 240 nM
- EC50 (C. parvum; Cp-NLuc-infected HCT-8 cells, 7.5 µM to 117 nM, Figure 2E, read-out: C. parvum EC50): 238 nM
- EC50 (T. gondii): 580 nM
- activity against G. lamblia (no activity up to) [1]: > 29 µM
- EC50 at 48 h (HCT-8 cytotoxicity assay): 2100 nM
- TC50 HCT-8 (confluent) (HCT-8 cells; confluent): > 30000 nM
- toxicity to host cells (no toxicity up to) (HCT-8 cells; confluent HCT-8, conditions of the infection assay, 48 h, cellular ATP): > 100 µM
- more cytotoxic towards host HCT-8 cells versus oidiolactone A (HCT-8 cells; non-confluent conditions): ~ 15 x
- TC50 HCT-8 (sub-confluent) (HCT-8 cells; sub-confluent): 2100 ± 300 nM
- TC50 HFF (confluent) (HFF cells; confluent): > 30000 nM
- toxicity to host cells (no toxicity up to) (HFF cells; confluent HFF, conditions of the infection assay, 24 h, cellular ATP): > 100 µM
- cytotoxicity against sub-confluent HFF (HFF cells; sub-confluent): no cytotoxicity observed
- TC50 HepG2 (HepG2 human hepatocytes): 10300 ± 2180 nM
- cytotoxicity against human fibroblast (HuF fibroblast cell line): no cytotoxicity observed
- TC50 HuF (sub-confluent) (HuF fibroblast cell line; sub-confluent, ref Rusman et al. 2020 [25]): 21400 ± 900 nM
- SI: selectivity index=EC50 HepG2/ EC50 compound (P. falciparum line Dd2): 11
- EC50 (P. falciparum line Dd2; Plasmodium falciparum, DD2, 72 h, read-out: EC50 Dd2 (M)): 9.83e-07 ± 1.11e-07 M
- EC50 (P. falciparum 3D7): 1.22e-06 ± 4.19e-07 M
